This experiment relates to A/PR/8/34; H1N1 viruses (PR8-WT, PR8-A122V). The arrangement: species or system C57BL/6 mice. The following applies: mouse, in vivo.

Each structure is given as a SMILES string. Entries after “also recorded” stand apart in the source; their conditions may differ.

For `CC1=C2C[C@H]3[C@@H](CC=C4C[C@@H](O)CC[C@@]43C)[C@@H]2CC[C@]12O[C@@H]1C[C@H](C)CN[C@H]1[C@H]2C` [cyclopamine], the “protection from the effects of influenza infection” value is given as “partially protected”. In addition, for the setting “ip”, the “columnar organization of the airway epithelium” value is reported as “restored a degree of columnar organization”; the “epithelial damage in lung airways caused by PR8-WT and PR8-A122V” value is given as “reduced epithelial damage; also recorded: partially rescued; also recorded: reduces viral damage in the lung”.

On to `C[C@H]1CC[C@]2(NC1)O[C@H]1C[C@H]3[C@@H]4CC[C@H]5C[C@@H](O)CC[C@]5(C)[C@H]4CC[C@]3(C)[C@H]1[C@@H]2C` [tomatidine], for which the “epithelial damage in lung airways caused by PR8-WT and PR8-A122V” value (ip) is reported as “no rescue of airway damage; also recorded: no obvious effect”.

Values taken from patent US9095579B2 (priority 2012, dated 2015).
